{"source": "patent US20080096967A1", "about": "“Formulations for Injection of Catecholic Butanes, Including Ndga Compounds, Into Animals” (priority 2005, published 2008)", "key": {"[1]": {"assay": "M4N solubility in water miscible organic solvents up to 48 hours (RP-HPLC)", "type": "physicochemical", "description": "To prepare M4N samples, 200 μL of 100 mg/mL M4N dissolved in acetone were placed in 1.5 mL polypropylene microtubes. The solvent was allowed to evaporate at room temperature for 48 hours until the samples were completely dry.\nThe water miscible organic solvent formulations were prepared in 15 mL polypropylene centrifuge tubes. 10 mL of each formulation was prepared. Each solvent was added on the basis of weight using its respective density at 25° C. Following brief mixing, each formulation was filtered through a 0.45 μm surfactant free cellulose acetate (“SFCA”) filter into a fresh 15 mL tube. Formulations were kept at room temperature until ready for use.\nAt each time point, the samples were centrifuged for 2 minutes at 13,000 rpm to pellet any solid M4N. As noted in Table 25, over half of the formulation conditions examined were able to solubilize M4N to a concentration of greater than 10 mg/Ml."}, "[2]": {"assay": "40 mg/mL M4N/PEG 300 stability: visual appearance", "type": "physicochemical", "description": "The stability of 40 mg/mL M4N dissolved in 100% PEG 300 was evaluated up to 24 hours incubation at 30° C., 45° C. and 60° C. A stock 40 mg/mL M4N in PEG 300 was prepared at 60° C., following the procedure set forth in Example 17. Subsequently, aliquots were removed and incubated at the appropriate temperature. Samples were rotated at 450 rpm during the entire course of incubation. Visual observations and RP-HPLC data were collected throughout. […] The formation of crystals coincided with a loss of soluble M4N (Table 30). The 40 mg/mL M4N/PEG 300 samples incubated at 45° C. and 60° C. were stable after 24 hours incubation as assessed by visual observations and RP-HPLC analysis (Tables 29 and 30)."}}}
{"molecule": "COc1ccc(C[C@@H](C)[C@@H](C)Cc2ccc(OC)c(OC)c2)cc1OC", "note": "[Formulation M4N, meso-1,4-bis(3,4-dimethoxyphenyl)-2,3-dimethylbutane]", "values": [{"measurement": "M4N solubility", "setting": "[1]; 44% EtOH, 50% T80, 6% DMA, 48 hrs at room temperature", "result": 23000, "unit": "µg/mL"}, {"measurement": "M4N solubility", "setting": "[1]; 48% EtOH, 50% Crem, 2% Benz, 2 hrs at room temperature", "result": 14020, "unit": "µg/mL"}, {"measurement": "M4N solubility", "setting": "[1]; 48% EtOH, 50% Crem, 2% Benz, 24 hrs at room temperature", "result": 18170, "unit": "µg/mL"}, {"measurement": "M4N solubility", "setting": "[1]; 48% EtOH, 50% Crem, 2% Benz, 48 hrs at room temperature", "result": 18510, "unit": "µg/mL"}, {"measurement": "M4N solubility", "setting": "[1]; 48% EtOH, 50% Glycerol, 2% Benz, 2 hrs at room temperature", "result": 1250, "unit": "µg/mL"}, {"measurement": "M4N solubility", "setting": "[1]; 48% EtOH, 50% Glycerol, 2% Benz, 24 hrs at room temperature", "result": 1660, "unit": "µg/mL"}, {"measurement": "M4N solubility", "setting": "[1]; 48% EtOH, 50% Glycerol, 2% Benz, 48 hrs at room temperature", "result": 1730, "unit": "µg/mL"}, {"measurement": "M4N solubility", "setting": "[1]; 48% EtOH, 50% PEG300, 2% Benz, 2 hrs at room temperature", "result": 14510, "unit": "µg/mL"}, {"measurement": "M4N solubility", "setting": "[1]; 48% EtOH, 50% PEG300, 2% Benz, 24 hrs at room temperature", "result": 15780, "unit": "µg/mL"}, {"measurement": "M4N solubility", "setting": "[1]; 48% EtOH, 50% PEG300, 2% Benz, 48 hrs at room temperature", "result": 16490, "unit": "µg/mL"}, {"measurement": "M4N solubility", "setting": "[1]; 48% EtOH, 50% PG, 2% Benz, 2 hrs at room temperature", "result": 4420, "unit": "µg/mL"}, {"measurement": "M4N solubility", "setting": "[1]; 48% EtOH, 50% PG, 2% Benz, 24 hrs at room temperature", "result": 4790, "unit": "µg/mL"}, {"measurement": "M4N solubility", "setting": "[1]; 48% EtOH, 50% PG, 2% Benz, 48 hrs at room temperature", "result": 4920, "unit": "µg/mL"}, {"measurement": "M4N solubility", "setting": "[1]; 48% EtOH, 50% T80, 2% Benz, 2 hrs at room temperature", "result": 16170, "unit": "µg/mL"}, {"measurement": "M4N solubility", "setting": "[1]; 48% EtOH, 50% T80, 2% Benz, 24 hrs at room temperature", "result": 19550, "unit": "µg/mL"}, {"measurement": "M4N solubility", "setting": "[1]; 48% EtOH, 50% T80, 2% Benz, 48 hrs at room temperature", "result": 19960, "unit": "µg/mL"}, {"measurement": "M4N solubility", "setting": "[1]; 50% EtOH, 50% Crem, 2 hrs at room temperature", "result": 13950, "unit": "µg/mL"}, {"measurement": "M4N solubility", "setting": "[1]; 50% EtOH, 50% Crem, 24 hrs at room temperature", "result": 17580, "unit": "µg/mL"}, {"measurement": "M4N solubility", "setting": "[1]; 50% EtOH, 50% Crem, 48 hrs at room temperature", "result": 18490, "unit": "µg/mL"}, {"measurement": "M4N solubility", "setting": "[1]; 50% EtOH, 50% Glycerol, 2 hrs at room temperature", "result": 1140, "unit": "µg/mL"}, {"measurement": "M4N solubility", "setting": "[1]; 50% EtOH, 50% Glycerol, 24 hrs at room temperature", "result": 1530, "unit": "µg/mL"}, {"measurement": "M4N solubility", "setting": "[1]; 50% EtOH, 50% Glycerol, 48 hrs at room temperature", "result": 1600, "unit": "µg/mL"}, {"measurement": "M4N solubility", "setting": "[1]; 50% EtOH, 50% PEG300, 24 hrs at room temperature", "result": 15070, "unit": "µg/mL"}, {"measurement": "M4N solubility", "setting": "[1]; 50% EtOH, 50% PEG300, 48 hrs at room temperature", "result": 16610, "unit": "µg/mL"}, {"measurement": "M4N solubility", "setting": "[1]; 50% EtOH, 50% PG, 2 hrs at room temperature", "result": 3640, "unit": "µg/mL"}, {"measurement": "M4N solubility", "setting": "[1]; 50% EtOH, 50% PG, 24 hrs at room temperature", "result": 4150, "unit": "µg/mL"}, {"measurement": "M4N solubility", "setting": "[1]; 50% EtOH, 50% PG, 48 hrs at room temperature", "result": 4430, "unit": "µg/mL"}, {"measurement": "M4N solubility", "setting": "[1]; 50% EtOH, 50% T80, 2 hrs at room temperature", "result": 15910, "unit": "µg/mL"}, {"measurement": "M4N solubility", "setting": "[1]; 50% EtOH, 50% T80, 24 hrs at room temperature", "result": 19280, "unit": "µg/mL"}, {"measurement": "M4N solubility", "setting": "[1]; 50% PG, 50% Crem, 2 hrs at room temperature", "result": 2940, "unit": "µg/mL"}, {"measurement": "M4N solubility", "setting": "[1]; 50% PG, 50% Crem, 24 hrs at room temperature", "result": 6330, "unit": "µg/mL"}, {"measurement": "M4N solubility", "setting": "[1]; 50% PG, 50% Crem, 48 hrs at room temperature", "result": 7200, "unit": "µg/mL"}, {"measurement": "M4N solubility", "setting": "[1]; 50% PG, 50% Glycerol, 2 hrs at room temperature", "result": 130, "unit": "µg/mL"}, {"measurement": "M4N solubility", "setting": "[1]; 50% PG, 50% Glycerol, 24 hrs at room temperature", "result": 480, "unit": "µg/mL"}, {"measurement": "M4N solubility", "setting": "[1]; 50% PG, 50% Glycerol, 48 hrs at room temperature", "result": 510, "unit": "µg/mL"}, {"measurement": "M4N solubility", "setting": "[1]; 50% PG, 50% PEG300, 2 hrs at room temperature", "result": 2650, "unit": "µg/mL"}, {"measurement": "M4N solubility", "setting": "[1]; 50% PG, 50% PEG300, 24 hrs at room temperature", "result": 4880, "unit": "µg/mL"}, {"measurement": "M4N solubility", "setting": "[1]; 50% PG, 50% PEG300, 48 hrs at room temperature", "result": 5300, "unit": "µg/mL"}, {"measurement": "M4N solubility", "setting": "[1]; 50% PG, 50% T80, 2 hrs at room temperature", "result": 5070, "unit": "µg/mL"}, {"measurement": "M4N solubility", "setting": "[1]; 50% PG, 50% T80, 24 hrs at room temperature", "result": 8160, "unit": "µg/mL"}, {"measurement": "M4N solubility", "setting": "[1]; 50% PG, 50% T80, 48 hrs at room temperature", "result": 8410, "unit": "µg/mL"}, {"measurement": "M4N solubility", "setting": "[1]; 100% Crem, 2 hrs at room temperature", "result": 1190, "unit": "µg/mL"}, {"measurement": "M4N solubility", "setting": "[1]; 100% Crem, 24 hrs at room temperature", "result": 7510, "unit": "µg/mL"}, {"measurement": "M4N solubility", "setting": "[1]; 100% Crem, 48 hrs at room temperature", "result": 12480, "unit": "µg/mL"}, {"measurement": "M4N solubility", "setting": "[1]; 100% EtOH, 2 hrs at room temperature", "result": 7200, "unit": "µg/mL"}, {"measurement": "M4N solubility", "setting": "[1]; 100% EtOH, 24 hrs at room temperature", "result": 7220, "unit": "µg/mL"}, {"measurement": "M4N solubility", "setting": "[1]; 100% EtOH, 48 hrs at room temperature", "result": 7910, "unit": "µg/mL"}, {"measurement": "M4N solubility", "setting": "[1]; 100% Glycerol, 2 hrs at room temperature", "result": "XXX (not detectable)"}, {"measurement": "M4N solubility", "setting": "[1]; 100% Glycerol, 24 hrs at room temperature", "result": 80, "unit": "µg/mL"}, {"measurement": "M4N solubility", "setting": "[1]; 100% Glycerol, 48 hrs at room temperature", "result": "XXX (not detectable)"}, {"measurement": "M4N solubility", "setting": "[1]; glycerol, 2 and 48 hours", "result": "not detectable"}, {"measurement": "visual observation", "setting": "[2]; 40 mg/mL M4N/PEG 300, 6 hours at 30° C.", "result": "tiny crystals were observed"}, {"measurement": "stability by visual observations and RP-HPLC", "setting": "[2]; 40 mg/mL M4N/PEG 300, 24 hours at 45° C. and 60° C.", "result": "stable"}]}
